“Also recorded” adds a separate entry of the source.

The subject of data set [1] is subjects with T2D taking liraglutide. Put plainly: Clinical study Part B: pharmacodynamics (weight, glucose, HbA1c). Type of data set: in vivo, human. The conditions noted are these: Part B: liraglutide alone titrated to 1.8 mg/day, mean ± SD. From the text:
In all three Parts, to reduce the risk of gastrointestinal adverse events subjects started by taking 15 g of GSK457 daily, in 2 divided doses, and were up−titrated to 30g daily (Day 4) and then to a maximum dose of 40 g daily at Day 7. Subjects unable to tolerate doses of 30 g or 40 g were permitted to reduce their dose to tolerated levels, with a minimum tolerated dose of 15 g required to remain in the study. A unit dose of 5 g of GSK457 consisted of three capsules of oleic acid and a separate sachet of powder for each of the three powder compounds. […]
In Parts B and C, there were additional clinic visits on Days 7, 14, and 28 for safety evaluations, potential modification of dose (Days 7 and 14), and dispensing of study medications. Subjects monitored their capillary blood glucose levels twice a day using a wireless-enabled glucometer and daily weights were monitored using a wireless enabled weighing instrument (see S3 Materials and Methods for more information). […]
Venous blood samples were collected for PD and PK analysis in K^+ EDTA tubes and rapidly placed on ice until centrifuged at 4°C for 10 minutes. Plasma was stored at -70°C until analyzed. Samples for clinical chemistry and hematology were measured by the local certified laboratory. Plasma samples were analyzed for glucose, insulin and leptin by BioAgilytix Labs (Durham, NC, USA). […]

Data set [2] has the same test system. Put plainly: Clinical study Part B: safety and tolerability. Type of data set: in vivo, human. The source says:
A unit dose of 5 g of GSK457 consisted of three capsules of oleic acid and a separate sachet of powder for each of the three powder compounds. The powders were mixed by the subject into 12 oz of flavored (Mio™ pomegranate/berry flavoring) water in a shaker bottle and consumed just prior to breakfast and dinner. The capsules could be taken with this drink or separately with water. The matching placebo consisted of starch and microcrystalline cellulose in identical sachets and capsules.

Data set [3] is described as follows: Clinical study Part B: plasma liraglutide pharmacokinetics.
The conditions of data set [4]: protocol risk table; cited from earlier work.
Data set [5] is described as follows: Clinical study Part A: plasma metformin pharmacokinetics. Particulars: for metformin Cmax / metformin AUC(0−10): geometric mean (CV%); for metformin Tmax: median (range).
Data set [6] can be described thus: Clinical study Part C: plasma metformin pharmacokinetics. The conditions noted are these: Part C: metformin taken 1 hour before GSK457; comparative plot, no statistics. It is filed as in vivo, human. The procedure:
All samples were shipped frozen on dry ice and stored at approximately -20 °C until analysed. […] The eluate was then further diluted with 1.00 mL of 2:98 formic acid / acetonitrile vol/vol, prior to being analyzed by HPLC with MS/MS detection.

The test system of another data set is patients. The conditions noted are these: cited from earlier work.
For data set [7], the system named is subjects with T2D taking metformin. The data set can be described thus: Clinical study Part C: pharmacodynamics (weight, glucose, HbA1c). Type of data set: in vivo, human. Particulars: Part C: usual metformin alone, mean ± SE. The source says:
In all three Parts, to reduce the risk of gastrointestinal adverse events subjects started by taking 15 g of GSK457 daily, in 2 divided doses, and were up-titrated to 30g daily (Day 4) and then to a maximum dose of 40 g daily at Day 7. Subjects unable to tolerate doses of 30 g or 40 g were permitted to reduce their dose to tolerated levels, with a minimum tolerated dose of 15 g required to remain in the study. A unit dose of 5 g of GSK457 consisted of three capsules of oleic acid and a separate sachet of powder for each of the three powder compounds. […] Subjects monitored their capillary blood glucose levels twice a day using a wireless-enabled glucometer and daily weights were monitored using a wireless enabled weighing instrument (see S3 Materials and Methods for more information). […] Plasma was stored at -70°C until analyzed. Samples for clinical chemistry and hematology were measured by the local certified laboratory. Plasma samples were analyzed for glucose, insulin and leptin by BioAgilytix Labs (Durham, NC, USA). Glucose was measured using a Glucose 2300 STAT Plus Glucose Analyzer with the glucose/lactate standard, catalog number 2747 (Yellow Springs Instrument Co, OH, USA). […] An estimation approach was used where point estimates for treatment differences and corresponding confidence intervals were determined. […]

For a further data set, the system named is DIO C57BL/6NTac mice. Put plainly: Chronic 28-day weight loss study in DIO mice. Type of data set: in vivo, mouse.
The mark [8] stands for this setting: subjects later randomized to GSK457.
The mark [9] stands for this setting: subjects later randomized to placebo.
[10] abbreviates: Part B, GSK457 group, Day 42, median (range), n=11.
Setting [11] is: Part B, with GSK457, data from 1 outlier excluded.
Setting [12] is: Part A healthy subjects, co-administration with GSK457.
The mark [13] stands for this setting: Part A, single 500 mg IR metformin, GSK457 group, Day 1 (metformin alone), n=11.
Setting [14] is: Part A, single 500 mg IR metformin, GSK457 group, Day 42 (with GSK457), n=10.
Where [15] appears, read: Part A, single 500 mg IR metformin, Placebo group, Day 1, n=4.
Setting [16] is: Part A, single 500 mg IR metformin, Placebo group, Day 42, n=4.
Setting [17] is: overdose, ref GLUCOPHAGE (Metformin) Package Insert.

With `CCCCCCCCCCCCCCCC(=O)N[C@@H](CCC(=O)NCCCC[C@H](NC(=O)[C@H](C)NC(=O)[C@H](C)NC(=O)[C@H](CCC(N)=O)NC(=O)CNC(=O)[C@H](CCC(=O)O)NC(=O)[C@H](CC(C)C)NC(=O)[C@H](Cc1ccc(O)cc1)NC(=O)[C@H](CO)NC(=O)[C@H](CO)NC(=O)[C@@H](NC(=O)[C@H](CC(=O)O)NC(=O)[C@H](CO)NC(=O)[C@@H](NC(=O)[C@H](Cc1ccccc1)NC(=O)[C@@H](NC(=O)CNC(=O)[C@H](CCC(=O)O)NC(=O)[C@H](C)NC(=O)[C@@H](N)Cc1cnc[nH]1)[C@@H](C)O)[C@@H](C)O)C(C)C)C(=O)N[C@@H](CCC(=O)O)C(=O)N[C@@H](Cc1ccccc1)C(=O)N[C@H](C(=O)N[C@@H](C)C(=O)N[C@@H](Cc1c[nH]c2ccccc12)C(=O)N[C@@H](CC(C)C)C(=O)N[C@H](C(=O)N[C@@H](CCCNC(=N)N)C(=O)NCC(=O)N[C@@H](CCCNC(=N)N)C(=O)NCC(=O)O)C(C)C)[C@@H](C)CC)C(=O)O` [liraglutide], the “change in mean body weight during the 12-week liraglutide Stabilization phase” value in data set [1] (setting [8]) was -1.29 kg; in data set [1] (setting [9]), -2.55 kg. Moreover, the “most common drug-related adverse events during the Stabilization period” value in data set [2] (Part B: liraglutide alone, 12 weeks, titrated to 1.8 mg/day) is “nausea, diarrhea, decreased appetite, and headache”. Further, in data set [2] (Part B: while subjects were on liraglutide, no symptoms or signs of pancreatitis, no clear differentiation GSK457 vs placebo), the circulating lipase/amylase concentrations result is “Asymptomatic elevations”. Besides, in [3] (Part B T2D patients, all data), the “effect of co-administration with GSK457 on liraglutide plasma exposures” value was “did not affect liraglutide plasma exposures; also recorded: no effect”. Also, the “liraglutide AUC(0−t)” value in data set [3] (Part B, GSK457 group, Day 42 (with GSK457), geometric mean (CV%), n=11) was 1266 (79.4) ng.h/mL. The “liraglutide Tlast” value is 24.02 (23.8−24.3) h in data set [3] (setting [10]); 23.88 (23.0−25.9) h in [3] (Part B, GSK457 group, Day -1, median (range), n=12); 23.80 (23.8−24.1) h in [3] (Part B, Placebo group, Day 42, median (range), n=5). Further, the “liraglutide Tmax” value in data set [3] (setting [10]) is given as 9.98 (0.8−23.8) h. For the same molecule, in data set [3] (setting [11]), the “increase of liraglutide AUC(0−t)” value is listed as 28%. For the same molecule, the “increase of liraglutide Cmax” value in [3] (setting [11]) is listed as 22%.
Regarding `CN(C)C(=N)N=C(N)N` [metformin], the “fraction of a dose that appears in the feces” value in data set [4] is listed as 20-30%. In addition, the “reduction of metformin systemic exposure” value in data set [5] (Part A healthy subjects, by GSK457) was ~ 30%. Also, the “decrease of metformin AUC(0−10 h)” value in data set [5] (setting [12]) turned out to be 32%. Also, the “decrease of metformin Cmax” value in data set [5] (setting [12]) worked out at 34%. In addition, the “metformin Cmax” value is listed as 682 (19.0) ng/mL in data set [5] (Part A healthy subjects, single 500 mg IR metformin before breakfast, Placebo group, Day 1, plasma, HPLC-MS/MS, n=4); 576 (24.4) ng/mL in [5] (Part A, single 500 mg IR metformin, GSK457 group, Day 1 (metformin alone, GSK457 started at dinner), n=11); 374 (31.2) ng/mL in data set [5] (Part A, single 500 mg IR metformin, GSK457 group, Day 42 (taken together with GSK457 after 6 weeks), n=10); 860 (18.8) ng/mL in data set [5] (setting [16]). The “metformin AUC(0−10)” value in data set [5] (setting [13]) is on record as 3403 (26.4) ng.h/mL; in [5] (setting [14]), 2232 (38.6) ng.h/mL; in [5] (setting [15]), 4347 (19.1) ng.h/mL; in [5] (setting [16]), 5082 (21.1) ng.h/mL. For the same molecule, the “metformin Tmax” value in [5] (setting [13]) is recorded as 2.00 (1.00−4.00) h; in data set [5] (setting [14]), 2.00 (2.00−5.50) h; in data set [5] (setting [15]) it was 3.01 (2.00−4.03) h; in data set [5] (setting [16]) it was 4.00 (2.00−4.03) h. The “effect on metformin AUC(0−10 h)” value in data set [6] was “slight decrease”. Moreover, in [6], the “effect on metformin Cmax” value is on record as “no apparent effect”. Further, the “patients with decrease to subnormal serum vitamin B12 levels” value with patients (human, in vivo) is on record as “approximately 7%”. In addition, in the data set on patients (setting [17]), the “hypoglycemia in metformin overdose cases” value is on record as “approximately 10 % of cases”. Besides, the “lactic acidosis in metformin overdose cases” value in the data set with patients (setting [17]) is recorded as “approximately 32%”. The “change in mean body weight during the 4-week metformin Stabilization phase” value was -1.62 kg in data set [7] (setting [8]) and -1.17 kg in data set [7] (setting [9]).
Turning to `CCCCCCCC/C=C\CCCCCCCC(=O)O` [oleic acid], in the data set with DIO C57BL/6NTac mice (agents dosed individually), the “effect on endocrine hormones” value was “little effect”. Besides, the “serum chemistry, effect of single agents” value in the data set on DIO C57BL/6NTac mice (single GRAS agent in chow) is given as “only a small beneficial effect”. Also, the “serum glucose vs. DIO vehicle” value in the data set on DIO C57BL/6NTac mice (single agent in chow, p < 0.05) is “lowered glucose”.

The values above are taken from article PMC4836696 (PLoS ONE, 2016).
